ChEMBL document CHEMBL1201862, “PubChem BioAssay data set” (2004)
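Cultured in 96-well plates, cells were exposed to test compound for 48 hours across five concentrations. Abbreviation: GI50, concentration required for 50% inhibition of growth.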 The source made the active and inactive calls. Rule as the data show it: active = GI50 up to about 1.1 µM and inactive = higher.

Columns and labels:
Assay in all cases: NCI anticancer screen, dose series, 48 h
[1] = system: 786-0
[2] = system: A498
[3] = system: A549
[4] = system: ACHN
[5] = system: CAKI-1
[6] = system: CCRF-CEM
[7] = system: COLO 205
[8] = system: DLD-1
[9] = system: DMS-273
[10] = system: EKVX
[11] = system: HCC 2998
[12] = system: HL-60
[13] = system: HOP-62
[14] = system: HOP-92
[15] = system: HT-29
[16] = system: IGROV-1
[17] = system: K562
[18] = system: KM-20L2
[19] = system: KM12
[20] = system: LOX IMVI
[21] = system: LXFL 529
[22] = system: M14
[23] = system: M19-MEL
[24] = system: MOLT-4
[25] = system: Malme-3M
[26] = system: NCI-H23
[27] = system: NCI-H460
[28] = system: NCI-H522
[29] = system: OVCAR-3
[30] = system: OVCAR-4
[31] = system: OVCAR-5
[32] = system: OVCAR-8
[33] = system: RPMI-8226
[34] = system: RXF 393
[35] = system: SF-268
[36] = system: SF-295
[37] = system: SF-539
[38] = system: SK-MEL-28
[39] = system: SK-MEL-2
[40] = system: SK-MEL-5
[41] = system: SK-OV-3
[42] = system: SN12C
[43] = system: SNB-19
[44] = system: SNB-75
[45] = system: SNB-78
[46] = system: SW-620
[47] = system: TK-10
[48] = system: U-251
[49] = system: UACC-257
[50] = system: UACC-62
[51] = system: UO-31
[52] = system: XF498

Measured: GI50

O=C(O[C@H]1[C@@H]2C=CO[C@@H](OC3OC(CO)C(O)C(O)C3O)[C@@H]2[C@@]2(CO)O[C@@H]12)c1ccc(O)c(O)c1 (some centres not stated)
inactive: [1] > 100 µM | [2] > 100 µM | [3] > 100 µM | [4] > 100 µM | [5] > 100 µM | [6] > 100 µM | [7] > 100 µM | [8] > 100 µM | [9] > 100 µM | [10] > 100 µM | [11] > 100 µM | [12] > 100 µM | [13] > 100 µM | [14] > 100 µM | [15] > 100 µM | [16] > 100 µM | [17] > 100 µM | [18] > 100 µM | [19] > 100 µM | [20] > 100 µM | [21] > 100 µM | [22] > 100 µM | [23] > 100 µM | [24] > 100 µM | [25] > 100 µM | [26] > 100 µM | [27] > 100 µM | [28] > 100 µM | [29] > 100 µM | [30] > 100 µM | [31] > 100 µM | [32] > 100 µM | [33] > 100 µM | [34] > 100 µM | [35] > 100 µM | [36] > 100 µM | [37] > 100 µM | [38] > 100 µM | [39] > 100 µM | [40] > 100 µM | [41] > 100 µM | [42] > 100 µM | [43] > 100 µM | [44] > 100 µM | [45] > 100 µM | [46] > 100 µM | [47] > 100 µM | [48] > 100 µM | [49] > 100 µM | [50] > 100 µM | [51] > 100 µM | [52] 41.5 µM
